Our source for the Activity values is ChEMBL document CHEMBL3271952, “Synthesis and pharmacological properties of the N-terminal decapeptide of the vasoactive intestinal peptide (VIP)” (J Med Chem, 1977).

The test system of one assay is Stomach. Description: Vasodilatory activity in rat stomach smooth muscle assessed as muscle relaxation. It is filed as functional, tissue-based.
For the next assay, the species on record is Cavia porcellus. Description: Vasodilatory activity in guinea pig trachea assessed as muscle relaxation. It is filed as functional, tissue-based.
Another assay relates to Canis familiaris. Description: Vasodilatory activity in anesthetized dog assessed as effect on blood flow. It is filed as functional, organism-based. The following applies: Canis lupus familiaris.

Calls of active or inactive are those of the source. No cut-off for these calls is given here. Peptide text beside a SMILES is read from it.

As to `COC(=O)[C@H](Cc1ccc(O)cc1)NC(=O)[C@H](CC(N)=O)NC(=O)[C@H](CC(=O)O)NC(=O)[C@@H](NC(=O)[C@H](Cc1ccccc1)NC(=O)[C@@H](NC(=O)[C@H](C)NC(=O)[C@H](CC(=O)O)NC(=O)[C@H](CO)NC(=O)[C@@H](N)Cc1cnc[nH]1)C(C)C)[C@@H](C)O` (H-HSDAVFTDNY-OMe), the result in the assay with Stomach and in the assay filed under Cavia porcellus was Active. As for H-AVKKYLNSILN-NH2, the result in the assay on Canis familiaris, in the assay with Stomach and in the assay listed under Cavia porcellus was Active. In the case of H-KQMAVKKYLNSILN-NH2, the outcome in the assay on Canis familiaris was Active. Turning to H-RKQMAVKKYLNSILN-NH2, the outcome in the assay with Canis familiaris was inactive.
